Experimental data reported in patent US20120264685A1 (priority 2009, published 2012).
Where a SMILES comes first, the peptide text is derived from it. [ ]: non-standard residue; d: D form. ξ: configuration not given here. ξαMeBip(2'-Et,4'-OMe) = CCc1cc(OC)ccc1-c1ccc(CC(C)(N)C(=O)O)cc1; ξαMePhe(2,6-F2) = CC(N)(Cc1c(F)cccc1F)C(=O)O; ξhhPhe = NC(CCCc1ccccc1)C(=O)O; ξαMeP = CC1(C(=O)O)CCCN1; ξαMeS = CC(N)(CO)C(=O)O

Tested on: male C57BL/6J mice
Assay: Acute single dose 120-min time-course experiment, in vivo glucose reduction
Design: unit not given here
Settings: n = 8, Mean ± SEM
Experimental: Acute single dose 120-min time-course experiments were carried out in male C57BL/6J or db/db mice, age 8-12 weeks, bred in-house. The animals were housed in groups of 6 animals per cage, for a week, in order to habituate them to vivarium conditions (25+4° C., 60-65% relative humidity, 12:12 h light: dark cycle, with lights on at 7.30 am). All the animal experiments were carried out according to the internationally valid guidelines following approval by the ‘Zydus Research Center animal ethical committee’.
[…] On the day of experiment, food was withdrawn from all the cages, water was given ad-libitum and were kept for overnight fasting. Vehicle (normal saline)/test/standard compounds were administered intraperitoneally (i.p.) or orally, on a body weight basis. Soon after the 0 min. blood collection from each animal, the subsequent blood collections were done at 30, 60 and 120 or upto 240 min., via retro-orbital route, under light ether anesthesia (Chen, D., et al., Diabetes Obesity Metabolism, 2005, 7, 307. Kim, J. G. et al., Diabetes, 2003, 52, 751).
The blood samples were centrifuged and the separated serum was immediately subjected for the glucose estimation. The serum for insulin estimation was stored at −70° C. until used for the insulin estimation. The glucose estimation was carried out with DPEC-GOD/POD method (Ranbaxy Fine Chemicals Limited, Diagnostic division, India), using Spectramax-190, in 96-microwell plate reader (Molecular devices Corporation, Sunnyvale, Calif.). […] The AUC and BCAUC obtained from graphs were analyzed for one way ANOVA, followed by Dunnett's post test, using Graph Pad prism software. Furthermore, the insulin estimation was carried out using rat/mouse insulin ELISA kit (Linco research, Missouri USA).

For `CCc1cc(OC)ccc1-c1ccc(CC(C)(NC(=O)[C@H](CC(=O)O)NC(=O)C(C)(CO)NC(=O)[C@@H](NC(=O)C(C)(Cc2c(F)cccc2F)NC(=O)[C@@H](NC(=O)CNC(=O)[C@H](CCC(=O)O)NC(=O)C2(C)CCCN2C(=O)[C@H](Cc2c[nH]cn2)NC(=O)[C@@H](N)C(C)C)[C@@H](C)O)[C@@H](C)O)C(=O)NC(CCCc2ccccc2)C(N)=O)cc1` (stereo partly drawn) [Seq. ID. No. 56, VH-(αMe-Pro)-EGT-(αMe-2,6-diFPhe)-T-(αMe-Ser)-D-(αMe-Bip(OMe))-(APPA)] (H-VH[ξαMeP]EGT[ξαMePhe(2,6-F2)]T[ξαMeS]D[ξαMeBip(2'-Et,4'-OMe)][ξhhPhe]-NH2), the “blood glucose level (in vivo glucose reduction)” value (5 nM/kg, i.p, 0 min) was 179 ± 5.0, the “blood glucose level (in vivo glucose reduction)” value (5 nM/kg, i.p, 30 min) was 120 ± 3.6 and the “blood glucose level (in vivo glucose reduction)” value (5 nM/kg, i.p, 60 min) was 129 ± 2.0. The “blood glucose level (in vivo glucose reduction)” value (5 nM/kg, i.p, 120 min) was 148 ± 1.7.
With `CCc1cc(OC)ccc1-c1ccc(CC(C)(NC(=O)C(C)(CC(=O)O)NC(=O)[C@H](CO)NC(=O)[C@@H](NC(=O)[C@H](Cc2ccccc2)NC(=O)[C@@H](NC(=O)CNC(=O)[C@H](CCC(=O)O)NC(=O)C(C)(C)NC(=O)[C@H](Cc2c[nH]cn2)NC(=O)[C@@H](N)C(C)C)[C@@H](C)O)[C@@H](C)O)C(=O)NC(C)(CCCc2ccccc2)C(N)=O)cc1` (single isomer, unassigned) [Seq. ID. No. 187, VH-Aib-EGTFTS-(αMe-Asp)-(αMe-Bip(OMe))-(αMe-APPA)] the “blood glucose level (in vivo glucose reduction)” value (2 μM/kg, oral, 0 min) was 183 ± 2.4, the “blood glucose level (in vivo glucose reduction)” value (2 μM/kg, oral, 30 min) was 119 ± 3.1 and the “blood glucose level (in vivo glucose reduction)” value (2 μM/kg, oral, 60 min) was 112 ± 4.8. For the same compound, the “blood glucose level (in vivo glucose reduction)” value (2 μM/kg, oral, 120 min) was 110 ± 2.5.
In the case of `CCc1cc(OC)ccc1-c1ccc(CC(C)(NC(=O)[C@H](CC(=O)O)NC(=O)[C@H](CO)NC(=O)[C@@H](NC(=O)C(C)(Cc2ccccc2F)NC(=O)[C@@H](NC(=O)CNC(=O)[C@H](CCC(=O)O)NC(=O)[C@H](CO)NC(=O)[C@H](Cc2c[nH]cn2)NC(=O)[C@@H](N)C(C)C)[C@@H](C)O)[C@@H](C)O)C(=O)NC(C)(CCCc2ccccc2)C(N)=O)cc1` (single isomer, unassigned) [Seq. ID. No. 145, VHSEGT-(αMe-2FPhe)-TSD-(αMe-Bip(OMe))-(αMe-APPA)], the “blood glucose level (in vivo glucose reduction)” value (2 μM/kg, oral, 0 min) was 184 ± 2.2, the “blood glucose level (in vivo glucose reduction)” value (2 μM/kg, oral, 30 min) was 118 ± 3.3 and the “blood glucose level (in vivo glucose reduction)” value (2 μM/kg, oral, 60 min) was 112 ± 4.4. For the same compound, the “blood glucose level (in vivo glucose reduction)” value (2 μM/kg, oral, 120 min) was 110 ± 2.9.
For `CCc1cc(OC)ccc1-c1ccc(CC(NC(=O)C(C)(CC(=O)O)NC(=O)C(C)(CO)NC(=O)[C@@H](NC(=O)C(C)(Cc2ccccc2F)NC(=O)[C@@H](NC(=O)CNC(=O)[C@H](CCC(N)=O)NC(=O)C2(C)CCCN2C(=O)[C@H](Cc2c[nH]cn2)NC(=O)[C@@H](N)C(C)C)[C@@H](C)O)[C@@H](C)O)C(=O)NC(C)(CCCc2ccccc2)C(N)=O)cc1` (single isomer, unassigned) [Seq. ID. No. 118, VH-(αMe-Pro)-QGT-(αMe-2FPhe)-T-(αMe-Ser)-(αMe-Asp)-Bip(OMe)-(αMe-APPA)], the “blood glucose level (in vivo glucose reduction)” value (2 μM/kg, oral, 0 min) was 184 ± 2.5, the “blood glucose level (in vivo glucose reduction)” value (2 μM/kg, oral, 30 min) was 115 ± 1.6 and the “blood glucose level (in vivo glucose reduction)” value (2 μM/kg, oral, 60 min) was 113 ± 3.2. The “blood glucose level (in vivo glucose reduction)” value (2 μM/kg, oral, 120 min) was 110 ± 2.4.
With `CCc1cc(OC)ccc1-c1ccc(CC(NC(=O)[C@H](CC(=O)O)NC(=O)[C@H](CO)NC(=O)[C@@H](NC(=O)C(C)(Cc2c(F)cccc2F)NC(=O)[C@@H](NC(=O)CNC(=O)[C@H](CCC(=O)O)NC(=O)C(C)(C)NC(=O)[C@H](Cc2c[nH]cn2)NC(=O)[C@@H](N)C(C)C)[C@@H](C)O)[C@@H](C)O)C(=O)NC(C)(CCCc2ccccc2)C(N)=O)cc1` (single isomer, unassigned) [Seq. ID. No. 105, VH-Aib-EGT-(αMe-2,6-diFPhe)-TSD-Bip(OMe)-(αMe-APPA)] the “blood glucose level (in vivo glucose reduction)” value (2 μM/kg, oral, 0 min) was 185 ± 2.1, the “blood glucose level (in vivo glucose reduction)” value (2 μM/kg, oral, 30 min) was 115 ± 2.8 and the “blood glucose level (in vivo glucose reduction)” value (2 μM/kg, oral, 60 min) was 112 ± 4.9. The “blood glucose level (in vivo glucose reduction)” value (2 μM/kg, oral, 120 min) was 111 ± 2.2.
`CCc1cc(OC)ccc1-c1ccc(CC(C)(NC(=O)C(C)(CC(=O)O)NC(=O)[C@H](CO)NC(=O)[C@@H](NC(=O)[C@H](Cc2ccccc2)NC(=O)[C@@H](NC(=O)CNC(=O)[C@H](CCC(=O)O)NC(=O)C2(C)CCCN2C(=O)[C@H](Cc2c[nH]cn2)NC(=O)[C@@H](N)C(C)C)[C@@H](C)O)[C@@H](C)O)C(=O)NC(CCCc2ccccc2)C(N)=O)cc1` (single isomer, unassigned) [Seq. ID. No. 64, VH-(αMe-Pro)-EGTFTS-(αMe-Asp)-(αMe-Bip(OMe))-(APPA)] was tested, and the “blood glucose level (in vivo glucose reduction)” value (2 μM/kg, oral, 0 min) was 183 ± 2.4, the “blood glucose level (in vivo glucose reduction)” value (2 μM/kg, oral, 30 min) was 116 ± 3.1 and the “blood glucose level (in vivo glucose reduction)” value (2 μM/kg, oral, 60 min) was 112 ± 4.8. For the same compound, the “blood glucose level (in vivo glucose reduction)” value (2 μM/kg, oral, 120 min) was 110 ± 2.5.
For `CCc1cc(OC)ccc1-c1ccc(CC(NC(=O)C(C)(CC(=O)O)NC(=O)C(C)(CO)NC(=O)[C@@H](NC(=O)C(C)(Cc2c(F)cccc2F)NC(=O)[C@@H](NC(=O)CNC(=O)[C@H](CCC(=O)O)NC(=O)C(C)(C)NC(=O)[C@H](Cc2c[nH]cn2)NC(=O)[C@@H](N)C(C)C)[C@@H](C)O)[C@@H](C)O)C(=O)NC(C)(CCCc2ccccc2)C(N)=O)cc1` (single isomer, unassigned) [Seq. ID. No. 129, VH-Aib-EGT-(αMe-2,6-diFPhe)-T-(αMe-Ser)-(αMe-Asp)-Bip(OMe)-(αMe-APPA)], the “blood glucose level (in vivo glucose reduction)” value (2 μM/kg, oral, 0 min) was 183 ± 2.4, the “blood glucose level (in vivo glucose reduction)” value (2 μM/kg, oral, 30 min) was 116 ± 3.1 and the “blood glucose level (in vivo glucose reduction)” value (2 μM/kg, oral, 60 min) was 112 ± 4.8. The “blood glucose level (in vivo glucose reduction)” value (2 μM/kg, oral, 120 min) was 110 ± 2.5.
In the case of `CCc1cc(OC)ccc1-c1ccc(CC(C)(NC(=O)C(C)(CC(=O)O)NC(=O)[C@H](CO)NC(=O)[C@@H](NC(=O)[C@H](Cc2ccccc2)NC(=O)[C@@H](NC(=O)CNC(=O)[C@H](CCC(N)=O)NC(=O)C(C)(C)NC(=O)[C@H](Cc2c[nH]cn2)NC(=O)[C@@H](N)C(C)C)[C@@H](C)O)[C@@H](C)O)C(=O)NC(CCCc2ccccc2)C(N)=O)cc1` (single isomer, unassigned) [Seq. ID. No. 59, VH-Aib-QGTFTS-(αMe-Asp)-(αMe-Bip(OMe))-(APPA)], the “blood glucose level (in vivo glucose reduction)” value (2 μM/kg, oral, 0 min) was 184 ± 2.5, the “blood glucose level (in vivo glucose reduction)” value (2 μM/kg, oral, 30 min) was 115 ± 3.6 and the “blood glucose level (in vivo glucose reduction)” value (2 μM/kg, oral, 60 min) was 113 ± 4.2. The “blood glucose level (in vivo glucose reduction)” value (2 μM/kg, oral, 120 min) was 110 ± 2.4.
With `CCc1cc(OC)ccc1-c1ccc(CC(C)(NC(=O)C(C)(CC(=O)O)NC(=O)[C@H](CO)NC(=O)[C@@H](NC(=O)C(C)(Cc2c(F)cccc2F)NC(=O)[C@@H](NC(=O)CNC(=O)[C@H](CCC(N)=O)NC(=O)C2(C)CCCN2C(=O)[C@H](Cc2c[nH]cn2)NC(=O)[C@@H](N)C(C)C)[C@@H](C)O)[C@@H](C)O)C(=O)NC(CCCc2ccccc2)C(N)=O)cc1` (single isomer, unassigned) [Seq. ID. No. 76, VH-(αMe-Pro)-QGT-(αMe-2,6-diFPhe)-TS-(αMe-Asp)-(αMe-Bip(OMe))-(APPA)] the “blood glucose level (in vivo glucose reduction)” value (2 μM/kg, oral, 0 min) was 183 ± 2.4, the “blood glucose level (in vivo glucose reduction)” value (2 μM/kg, oral, 30 min) was 116 ± 3.1 and the “blood glucose level (in vivo glucose reduction)” value (2 μM/kg, oral, 60 min) was 112 ± 4.8. The “blood glucose level (in vivo glucose reduction)” value (2 μM/kg, oral, 120 min) was 110 ± 2.5.
With `CCc1cc(OC)ccc1-c1ccc(CC(C)(NC(=O)[C@H](CC(=O)O)NC(=O)C(C)(CO)NC(=O)[C@@H](NC(=O)C(C)(Cc2c(F)cccc2F)NC(=O)[C@@H](NC(=O)CNC(=O)[C@H](CCC(=O)O)NC(=O)[C@H](CO)NC(=O)[C@H](Cc2c[nH]cn2)NC(=O)[C@@H](N)C(C)C)[C@@H](C)O)[C@@H](C)O)C(=O)NC(C)(CCCc2ccccc2)C(N)=O)cc1` (single isomer, unassigned) [Seq. ID. No. 177, VHSEGT-(αMe-2,6-diFPhe)-T-(αMe-Ser)-D-(αMe-Bip(OMe))-(αMe-APPA)] the “blood glucose level (in vivo glucose reduction)” value (2 μM/kg, oral, 0 min) was 183 ± 2.4, the “blood glucose level (in vivo glucose reduction)” value (2 μM/kg, oral, 30 min) was 116 ± 3.1 and the “blood glucose level (in vivo glucose reduction)” value (2 μM/kg, oral, 60 min) was 112 ± 4.8. The “blood glucose level (in vivo glucose reduction)” value (2 μM/kg, oral, 120 min) was 110 ± 2.5.
In the case of `CCc1cc(OC)ccc1-c1ccc(CC(NC(=O)[C@H](CC(=O)O)NC(=O)[C@H](CO)NC(=O)[C@@H](NC(=O)C(C)(Cc2c(F)cccc2F)NC(=O)[C@@H](NC(=O)CNC(=O)[C@H](CCC(N)=O)NC(=O)[C@H](CO)NC(=O)[C@H](Cc2c[nH]cn2)NC(=O)[C@@H](N)C(C)C)[C@@H](C)O)[C@@H](C)O)C(=O)NC(C)(CCCc2ccccc2)C(N)=O)cc1` (single isomer, unassigned) [Seq. ID. No. 99, VHSQGT-(αMe-2,6-diF-Phe)-TSD-Bip(OMe)-(αMe-APPA)], the “blood glucose level (in vivo glucose reduction)” value (2 μM/kg, oral, 0 min) was 184 ± 2.5, the “blood glucose level (in vivo glucose reduction)” value (2 μM/kg, oral, 30 min) was 118 ± 3.6 and the “blood glucose level (in vivo glucose reduction)” value (2 μM/kg, oral, 60 min) was 113 ± 4.2. For the same compound, the “blood glucose level (in vivo glucose reduction)” value (2 μM/kg, oral, 120 min) was 110 ± 2.4.
